How the values were obtained:
[1] = tested on: myocardial infarction, ischemic stroke and peripheral thrombosis; settings: oral antiplatelet therapy with acetylsalicylic acid and clopidogrel; cited from earlier work
[2] = Patient history of statin treatment (tolerability); type: in vivo, human; settings: history of patient M. (Example 1)
[3] = 0.5% Novocaine, 5.0-10.0 ml, in medicinal mixture administered into the recommended sites; cited from earlier work

SMILES	reduction of the risk of myocardial infarction, ischemic stroke and peripheral thrombosis [1]	also measured
CC(=O)Oc1ccccc1C(=O)O [acetylsalicylic acid]	20-25%	
CCC(C)(C)C(=O)O[C@H]1C[C@@H](C)C=C2C=C[C@H](C)[C@H](CC[C@@H]3C[C@@H](O)CC(=O)O3)[C@H]21 [simvastatin]		tolerability of earlier treatment [2]: discontinued due to side effects
CCN(CC)CCOC(=O)c1ccc(N)cc1 [Novocaine]		undesirable effects [3]: reduction of arterial pressure up to collapse, dizziness, headache, arrhythmia
COC(=O)[C@H](c1ccccc1Cl)N1CCc2sccc2C1 [clopidogrel]	20-25%	

— patent US20260284062A1 (Konstantin Pavlovich GARYAEV, priority 2023, published 2026)
